Source: paper PMC4971072, “Chemically Homogenous Compounds with Antagonistic Properties at All α1-Adrenoceptor Subtypes but not β1-Adrenoceptor Attenuate Adrenaline-Induced Arrhythmia in Rats” (Frontiers in Pharmacology, 2016)
Read-outs that look alike come from different tables or passages of the source. Marks after values point to notes of the source that are not given here. Blank lines part the entries; values can stand above or below the molecule they belong to.

Legend:
[1] = test system: adrenaline-induced arrhythmia in rats; experiment: Prophylactic antiarrhythmic activity in adrenaline-induced arrhythmia; assay type: in vivo, rat
Procedure: The studied compounds were administered i.p. 45 min before the injection of adrenaline, calcium chloride, or barium chloride. The electrocardiogram (ECG) was recorded during the first 2 min as well as in the 5th, 10th, and 15th min after the arrhythmogen injection. […]

α1-adrenoceptor [2] = experiment: α1-adrenoceptor radioligand binding assay ([3H]-prazosin, rat cerebral cortex); details: read-out: Adrenergic receptors Ki α1
Procedure: The α1- and β1-adrenoceptor radioligand binding assay was performed on rat cerebral cortex. […] The cell pellet was resuspended in the Tris–HCl buffer and centrifuged again. Radioligand binding assays were performed in plates (MultiScreen/Millipore). […] The incubation was terminated by rapid filtration through glass fiber filters (Whatman GF/C) using a vacuum manifold (Millipore). The filters were then washed twice with the assay buffer and placed in scintillation vials with a liquid scintillation cocktail. […] All the assays were made in duplicate and the inhibitory constants (Ki) were estimated.
LO–labeled ligand concentration, KD–dissociation constant of labeled ligand

α1A-adrenoceptors = molecular target: T1, α1A-adrenoceptors (Rattus norvegicus, UniProt P43140); details: rat tail artery, cited from earlier work
T1 construct: the middle part of the ventral caudal artery was removed; from tissue; host or cells: isolated rat tail (ventral caudal) artery rings
T1 sequence (P43140 1-466): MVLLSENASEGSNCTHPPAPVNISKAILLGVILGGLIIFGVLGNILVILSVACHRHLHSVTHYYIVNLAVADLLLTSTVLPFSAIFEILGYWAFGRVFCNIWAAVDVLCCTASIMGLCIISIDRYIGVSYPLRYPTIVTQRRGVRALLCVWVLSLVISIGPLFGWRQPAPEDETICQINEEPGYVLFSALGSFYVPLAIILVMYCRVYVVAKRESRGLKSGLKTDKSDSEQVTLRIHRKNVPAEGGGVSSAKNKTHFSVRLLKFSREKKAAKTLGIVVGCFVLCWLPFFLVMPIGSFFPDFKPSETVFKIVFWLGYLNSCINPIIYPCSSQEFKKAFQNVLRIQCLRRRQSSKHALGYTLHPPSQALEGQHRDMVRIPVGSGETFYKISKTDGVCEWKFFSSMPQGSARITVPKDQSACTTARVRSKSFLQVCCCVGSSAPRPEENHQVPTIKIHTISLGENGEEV

α1B-adrenoceptors = molecular target: T2, α1B-adrenoceptors (Mus musculus, UniProt P97717); details: mouse spleen, cited from earlier work
T2 construct: The spleen was removed from male mice; from tissue; host or cells: isolated mouse spleen
T2 sequence (P97717 1-514): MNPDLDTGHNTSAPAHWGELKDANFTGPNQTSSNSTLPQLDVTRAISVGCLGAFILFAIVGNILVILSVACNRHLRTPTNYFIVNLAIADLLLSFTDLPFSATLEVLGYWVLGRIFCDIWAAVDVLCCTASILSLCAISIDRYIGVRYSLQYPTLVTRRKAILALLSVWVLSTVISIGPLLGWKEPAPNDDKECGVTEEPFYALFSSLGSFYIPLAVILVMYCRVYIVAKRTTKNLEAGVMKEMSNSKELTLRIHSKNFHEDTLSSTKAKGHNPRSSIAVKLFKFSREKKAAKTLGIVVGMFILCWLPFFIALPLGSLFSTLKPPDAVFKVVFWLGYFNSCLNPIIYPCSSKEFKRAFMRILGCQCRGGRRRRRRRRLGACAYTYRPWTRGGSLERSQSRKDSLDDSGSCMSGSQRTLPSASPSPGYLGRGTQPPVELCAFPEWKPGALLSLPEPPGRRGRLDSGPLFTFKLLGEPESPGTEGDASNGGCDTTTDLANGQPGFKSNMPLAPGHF

α1D-adrenoreceptors = molecular target: T3, α1D-adrenoreceptors (Rattus norvegicus, UniProt P23944); details: rat aorta; ref Eltze (1996); cited from earlier work
T3 sequence (P23944 1-561): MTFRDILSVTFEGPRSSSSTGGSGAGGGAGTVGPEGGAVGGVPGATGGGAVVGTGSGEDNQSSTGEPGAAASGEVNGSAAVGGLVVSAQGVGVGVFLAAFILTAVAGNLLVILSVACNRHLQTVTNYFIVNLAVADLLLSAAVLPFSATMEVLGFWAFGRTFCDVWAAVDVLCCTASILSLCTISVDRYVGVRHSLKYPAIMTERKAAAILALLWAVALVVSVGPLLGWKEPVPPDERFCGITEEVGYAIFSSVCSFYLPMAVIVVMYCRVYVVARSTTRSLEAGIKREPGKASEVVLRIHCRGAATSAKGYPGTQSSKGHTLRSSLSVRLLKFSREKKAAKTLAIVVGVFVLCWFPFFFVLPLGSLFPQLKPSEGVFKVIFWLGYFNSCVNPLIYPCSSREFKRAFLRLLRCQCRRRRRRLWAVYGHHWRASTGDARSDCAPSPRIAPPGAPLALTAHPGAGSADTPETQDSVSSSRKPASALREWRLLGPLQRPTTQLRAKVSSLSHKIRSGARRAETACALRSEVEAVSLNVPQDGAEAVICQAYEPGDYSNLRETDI

[3] = test system: lipid peroxidation in rat brain homogenate; experiment: Lipid peroxidation in rat brain homogenate (TBARS), antioxidant effect; assay type: biochemical; details: 10^−3 M
Procedure: The rat brain homogenate containing 10 mg tissue/ml was prepared in 0.9% saline. The rates of membrane lipid peroxidation were measured by the formation of thiobarbituric acid reactive substances (TBARS). Rat brain homogenates (1 ml) were incubated at 37°C for 5 min with 10 μl of a tested compound or vehicle. Lipid peroxidation was initiated by the addition of 50 μl of 0.5 mM FeCl2 and 50 μl of 2.0 mM ascorbic acid. After 30 min of incubation, the reaction was stopped by adding 0.1 ml of 0.2% butylated hydroxytoluene (BHT). Thiobarbituric acid reagent was then added and the mixture was heated for 15 min in a boiling water bath.

α1-adrenoceptor [4] = details: ref Pönicke et al. (2002); read-out: Adrenergic receptors Ki α1; cited from earlier work
α1A−adrenoceptor subtype = test system: α1A−adrenoceptor subtype; parameters: method as in Koshimizu et al. (2004); details: ref Koshimizu et al. (2004); cited from earlier work
α1B−adrenoceptor = test system: α1B−adrenoceptor; parameters: method as in Koshimizu et al. (2004); details: ref Koshimizu et al. (2004); cited from earlier work
[5] = adrenaline 20 μg/kg i.v. alone (arrhythmia control)

SMILES: CNC[C@H](O)c1ccc(O)c(O)c1 [Adrenaline, adrenaline]
Bigeminy (%) [1, 5]: 33.3%
Blocks (%) [1, 5]: 50.0%
Bradycardia (%) [1, 5]: 66.7%

Ki (α1-adrenoceptor [2]): 0.0183 µM
SMILES: Cc1ccc(N(CC2=NCCN2)c2cccc(O)c2)cc1 [Phentolamine, phentolamine, reference compound]

SMILES: COc1cc2nc(N3CCN(C(=O)c4ccco4)CC3)nc(N)c2cc1OC [Prazosin, prazosin]
pA2 ± S.E.M., α1A (α1A-adrenoceptors; ref Parés-Hipólito et al. (2006)): 8.93 ± 0.03^a
pA2 ± S.E.M., α1B (α1B-adrenoceptors; ref Eltze (1996)): 9.07 ± 0.09^b
pA2 ± S.E.M., α1D (α1D-adrenoreceptors): 8.85 ± 0.09^b

SMILES: CCOc1ccccc1OCCN[C@H](C)Cc1ccc(OC)c(S(N)(=O)=O)c1 [Tamsulosin]
pA2 ± S.E.M., α1A (α1A-adrenoceptors; ref Jähnichen et al. (2004)): 10.32 ± 0.05^c
pA2 ± S.E.M., α1B (α1B-adrenoceptors; ref Eltze et al. (1999)): 8.33 ± 0.08^d

SMILES: COc1ccccc1OCCNCC(O)COc1cccc2[nH]c3ccccc3c12 (stereo not shown) [Carvedilol, carvedilol, reference compound]
ED50 ([1]; Rattus norvegicus, read-out: ED50 (confidence limits)): 0.36 mg/kg
inhibition of lipid peroxidation (in words) [3]: inhibited lipid peroxidation
% reduction of absorbance (% antioxidant activity) ([3]; TBARs at 532 nm): 89.58%
Absorbance ([3]; TBARs at 532 nm): 0.094 ± 0.002
pA2 value for α1A−adrenoceptor subtype (α1A−adrenoceptor subtype): 9.0
pA2 value for α1B−adrenoceptor (α1B−adrenoceptor): 10.0
